Each structure is given as a SMILES string.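 In this assay, cells in 96-well plates receive the compound at five concentrations for 48 hours. Endpoints are linearly interpolated between the surrounding concentrations. Definition used: TGI = concentration required for complete inhibition of growth.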

Drawing on PubChem BioAssay (NCI), this text covers TGI for nine compounds.

Among the test systems are UACC-257 melanoma; LOX IMVI melanoma; NCI-H226 lung; SF-268 CNS; SK-MEL-2 melanoma; RXF 393 renal; RPMI-8226 leukemia; SNB-75 CNS; SN12C renal; HCT-116 colon; SK-OV-3 ovarian; 786-0 renal; EKVX NSCLC; MDA-MB-231 breast; UO-31 renal; UACC-62 melanoma; SK-MEL-5 melanoma.
What all share (assay): inhibition of tumour cell growth, NCI panel, 48 h

Turning to `Cc1cc2nc3n[nH]c(N)c3nc2cc1C`, the TGI in the assay on UACC-257 melanoma, with LOX IMVI melanoma, in the assay on NCI-H226 lung, in the assay with SF-268 CNS, in the assay on SK-MEL-2 melanoma and with RXF 393 renal was above 100 µM throughout. Besides, the TGI was above 100 µM in the assay with RPMI-8226 leukemia; 87.8 µM in the assay on SNB-75 CNS; above 100 µM in the assay with SN12C renal; above 100 µM with HCT-116 colon; above 100 µM in the assay with SK-OV-3 ovarian; above 100 µM in the assay on 786-0 renal. The TGI in the assay with EKVX NSCLC, in the assay on MDA-MB-231 breast, in the assay with UO-31 renal and in the assay on UACC-62 melanoma was above 100 µM each time.
With `CCOC(=O)c1nc2cc(N3CCOCC3)c(F)cc2[nH]c1=O`, the TGI in the assay with UACC-257 melanoma, with NCI-H226 lung, in the assay on SF-268 CNS, in the assay on SK-MEL-2 melanoma, in the assay with RXF 393 renal and with RPMI-8226 leukemia was above 100 µM each time. Moreover, the TGI with SNB-75 CNS, in the assay on SN12C renal, in the assay on HCT-116 colon, in the assay on SK-OV-3 ovarian, in the assay on SK-MEL-5 melanoma and in the assay on 786-0 renal was above 100 µM throughout. In addition, the TGI in the assay with EKVX NSCLC, in the assay with MDA-MB-231 breast, with UO-31 renal and with UACC-62 melanoma was above 100 µM in each case.
In the case of `COC(CN(C)C(=O)C(C)NC(=O)c1ccccc1)OC` (configuration not stated), the TGI with UACC-257 melanoma, in the assay with NCI-H226 lung, with SF-268 CNS, with SK-MEL-2 melanoma, in the assay with RXF 393 renal and with RPMI-8226 leukemia was above 100 µM throughout. Moreover, the TGI in the assay on SNB-75 CNS, in the assay on SN12C renal, in the assay with HCT-116 colon, with SK-OV-3 ovarian, with SK-MEL-5 melanoma and in the assay with 786-0 renal was above 100 µM each time. Besides, the TGI with EKVX NSCLC, in the assay with MDA-MB-231 breast and in the assay on UACC-62 melanoma was above 100 µM throughout.
Take `COc1ccc(/C=C2\C=Cc3ccccc32)cc1OC`: the TGI with UACC-257 melanoma, in the assay with LOX IMVI melanoma, in the assay on NCI-H226 lung, in the assay with SF-268 CNS, in the assay on SK-MEL-2 melanoma and in the assay on RXF 393 renal was above 100 µM in each case. Moreover, the TGI was 82.2 µM in the assay with SNB-75 CNS; above 100 µM with SN12C renal; above 100 µM with HCT-116 colon; above 100 µM with SK-OV-3 ovarian; above 100 µM in the assay with SK-MEL-5 melanoma; above 100 µM with 786-0 renal. Besides, the TGI with EKVX NSCLC, in the assay with MDA-MB-231 breast and in the assay on UACC-62 melanoma was above 100 µM throughout.
For the compound `CC(=O)ON(OC(C)=O)c1ccc(C)cc1`, the TGI in the assay with UACC-257 melanoma, with SF-268 CNS, with SK-MEL-2 melanoma, with RXF 393 renal, in the assay on RPMI-8226 leukemia and in the assay on SNB-75 CNS was above 100 µM throughout. For the same compound, the TGI with HCT-116 colon, in the assay with SK-OV-3 ovarian, in the assay with SK-MEL-5 melanoma, in the assay with 786-0 renal, in the assay on EKVX NSCLC and in the assay on MDA-MB-231 breast was above 100 µM each time. In addition, the TGI in the assay on UO-31 renal and in the assay on UACC-62 melanoma was above 100 µM each time.
In the case of `Cc1cc(-c2ccc(C(=O)O)[nH]2)on1`, the TGI in the assay with UACC-257 melanoma, in the assay with SF-268 CNS, in the assay on SK-MEL-2 melanoma, in the assay on RXF 393 renal, in the assay on RPMI-8226 leukemia and in the assay on SNB-75 CNS was above 100 µM throughout. Also, the TGI in the assay on HCT-116 colon, with SK-OV-3 ovarian, with SK-MEL-5 melanoma, in the assay on 786-0 renal, in the assay with EKVX NSCLC and in the assay with MDA-MB-231 breast was above 100 µM in each case. For the same compound, the TGI in the assay on UO-31 renal and in the assay with UACC-62 melanoma was above 100 µM each time.
For the compound `CCOC(=O)CN1CCNCCN(CC(=O)OCC)CCNCC1`, the TGI in the assay on UACC-257 melanoma, in the assay with LOX IMVI melanoma, with NCI-H226 lung, with SK-MEL-2 melanoma, in the assay on RXF 393 renal and in the assay on RPMI-8226 leukemia was above 100 µM each time. Also, the TGI with SNB-75 CNS, in the assay on SN12C renal, in the assay with HCT-116 colon, in the assay with SK-OV-3 ovarian, with SK-MEL-5 melanoma and in the assay on 786-0 renal was above 100 µM each time. The TGI in the assay with EKVX NSCLC, in the assay with MDA-MB-231 breast, in the assay with UO-31 renal and in the assay with UACC-62 melanoma was above 100 µM throughout.
For `COc1ccc2[nH]c(CCNC(=O)c3cc([N+](=O)[O-])cc([N+](=O)[O-])c3)cc2c1`, the TGI was above 100 µM with UACC-257 melanoma; above 100 µM in the assay on LOX IMVI melanoma; above 100 µM with NCI-H226 lung; above 100 µM in the assay on SF-268 CNS; above 100 µM in the assay with SK-MEL-2 melanoma; 56.9 µM in the assay with RXF 393 renal. For the same compound, the TGI in the assay with RPMI-8226 leukemia was above 100 µM; in the assay with SNB-75 CNS, 46.2 µM; with SN12C renal it was above 100 µM; in the assay with HCT-116 colon it was above 100 µM; with SK-OV-3 ovarian it was above 100 µM; in the assay with SK-MEL-5 melanoma, above 100 µM. Besides, the TGI in the assay with 786-0 renal, in the assay with MDA-MB-231 breast, in the assay on UO-31 renal and in the assay with UACC-62 melanoma was above 100 µM each time.
As for `COC(=O)c1ccccc1C1CN=NC12Cc1ccc3ccccc3c1C2=O` (configuration not stated), the TGI with UACC-257 melanoma, with LOX IMVI melanoma, in the assay on NCI-H226 lung, in the assay with SF-268 CNS, with SK-MEL-2 melanoma and in the assay with RXF 393 renal was above 100 µM each time. Further, the TGI in the assay on RPMI-8226 leukemia, in the assay with SNB-75 CNS, with SN12C renal, in the assay with SK-MEL-5 melanoma, with 786-0 renal and in the assay with EKVX NSCLC was above 100 µM each time. Besides, the TGI with MDA-MB-231 breast, with UO-31 renal and in the assay with UACC-62 melanoma was above 100 µM in each case.
